In patent US12343368B2, “Cleome droserifolia extract and therapeutic or cosmetic use thereof” (ANPJ HEALTHCARE, priority 2019, dated 2025):

Tests used:
citrated ovine plasma = test: Coagulant activity in vitro (coagulation time, coagulometer); type: biochemical
Method: The material used is described as follows: • The 6th international standard for unfractionated heparin (WHO 07; 328) • Activated cephaloplastin reagent Dade® Actin®—Siemens • Calcium chloride—Siemens®. • Thermo Scientific coagulometer • Citrated ovine plasma 8.7%. • Aqueous extract of lyophilized Cleome droserifolia The operating protocol is described as follows: The lyophilized extract was dissolved in ultrapure water to obtain a stock concentration of 2 mg/ml. Dilution was carried out to obtain a concentration of 0.6 mg/ml. In a first experiment, 100 μl of each of the following solutions was added to the cuvettes of the coagulometer (n=2): • Lyophilisate solution concentrated at 0.6 mg/ml, • Heparin solution at a concentration of 0.6 IU/ml • Physiological solution for the control group, • Then, 100 μl of sheep plasma was added to all the wells. • After 2 minutes, 100 μl of reactant activated with Cephalosplatin Cade® Actin was added. • After 5 minutes of incubation, 100 μl of calcium chloride solution were added and the coagulation times were recorded.

[1] = Antioxidant activity, cell viability (MTT) after hydrogen peroxide stress; type: cell-based; details: mouse, NCTC clone 929 cells, Without H2O2, read-out: Cellular viability (%)
NCTC clone 929 cell line = test: as above; type: cell-based; details: 0.56 mg/ml; for Absorbance Mean: 570 nm

For Heparin, the coagulation time (citrated ovine plasma; heparin) was 54.3 s and the coagulation time (citrated ovine plasma; heparin 0.6 IU/ml) was 54.3 s.
With O=C1O[C@H]([C@@H](O)CO)C(O)=C1O [ascorbic acid] the viability at 24 h, 0.56 mg/ml [1] was 77.6%, the viability at 25 µM (NCTC clone 929 cell line; NCTC clone 929, With H2O2 (25 μM), read-out: Cellular viability (%)) was 74.4% and the “Absorbance Mean” value (NCTC clone 929 cell line; With H2O2 (25 μM)) was 0.3564. For the same molecule, the “Absorbance Mean” value (NCTC clone 929 cell line; Without H2O2) was 0.3719.
